# pIC50: −log10 of the molar value.
# What was measured:
# [1] = target: T1, hRIPK1 (aa 1-375) fusion protein (Homo sapiens, UniProt Q13546); assay: ADP-Glo kinase assay: catalytic activity of RIPK1 (autophosphorylation, conversion of ATP to ADP); type: biochemical
# T1 construct: hRIPK1 (aa 1-375) fusion protein
# T1 sequence (Q13546 1-375): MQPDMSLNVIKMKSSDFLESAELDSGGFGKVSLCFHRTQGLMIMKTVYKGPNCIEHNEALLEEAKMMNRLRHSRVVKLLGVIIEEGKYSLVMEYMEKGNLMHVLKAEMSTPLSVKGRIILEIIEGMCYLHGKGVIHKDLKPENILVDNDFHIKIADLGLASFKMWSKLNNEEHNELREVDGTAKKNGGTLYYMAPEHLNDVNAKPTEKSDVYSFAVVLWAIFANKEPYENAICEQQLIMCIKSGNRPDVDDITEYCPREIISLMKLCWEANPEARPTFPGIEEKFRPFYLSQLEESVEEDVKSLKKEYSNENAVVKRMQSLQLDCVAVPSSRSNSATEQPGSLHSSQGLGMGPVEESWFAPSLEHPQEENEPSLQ
# Method in brief: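 The readout was ADP-Glo luminescence after a 240 min rt autophosphorylation reaction with 50 μM ATP, following 30 min preincubation of 3.6 μg/ml hRIPK1 (aa 1-375) fusion with compound at 33300-1.69 nM final in 1% DMSO. Values came from Levenberg-Marquardt nonlinear fits.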
# U937 cells = assay: Cellular assay in U937 cells: activity of RIPK1 inhibitors on TNFα/zVAD.fmk-induced cell death (necroptosis), CellTiter 96 AQueous (MTS) readout; type: cell-based; conditions: Homo sapiens, U-937
# Method in brief: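 Necroptosis was measured by viable-cell MTS reduction (4 h, absorbance 490 nm) after overnight (18–24 h) 37° C culture. Cell suspensions of U937 cells carried TNFα (100 ng/ml) plus zVAD.fmk (50 μM) before compound was added. A 10-point curve (10 μM–0.26 nM or 1 μM–0.07 nM) was run in duplicate, normalised to the control lacking TNFα/zVAD.fmk.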
SMILES,pIC50 [1],pIC50 (U937 cells)
"NC(=O)c1ccc2c(cnn2C[C@H]2CC[C@H](C(=O)N3OCC[C@H]3c3cc(F)cc(F)c3)CC2)c1 [compound 73, trans-1-((4-((S)-3-(3,5-difluorophenyl)isoxazolidine-2-carbonyl)cyclohexyl)methyl)-1H-indazole-5-carboxamide]",7.62,8.05
"N#Cc1cc(F)cc([C@@H]2CCON2C(=O)[C@H]2CC[C@H](Cn3cnc4cc(C(N)=O)c(F)cc43)CC2)c1 [compound 74, trans-1-((4-((S)-3-(3-cyano-5-fluorophenyl)isoxazolidine-2-carbonyl)cyclohexyl)methyl)-6-fluoro-1H-benzo[d]imidazole-5-carboxamide]",7.55,6.97
"NC(=O)c1cc2ncn(C[C@H]3CC[C@H](C(=O)N4OCC[C@H]4c4cc(F)cc(F)c4)CC3)c2cc1F [compound 75, trans-1-((4-((S)-3-(3,5-difluorophenyl)isoxazolidine-2-carbonyl)cyclohexyl)methyl)-6-fluoro-1H-benzo[d]imidazole-5-carboxamide]",7.57,7.44
"N#Cc1cc(F)cc([C@@H]2CCON2C(=O)[C@H]2CC[C@H](Cn3ccc4cc(F)c(C(N)=O)cc43)CC2)c1 [compound 76, trans-1-((4-((S)-3-(3-cyano-5-fluorophenyl)isoxazolidine-2-carbonyl)cyclohexyl)methyl)-5-fluoro-1H-indole-6-carboxamide]",7.77,8.10
"NC(=O)c1cc2c(ccn2C[C@H]2CC[C@H](C(=O)N3OCC[C@H]3c3cc(F)cc(F)c3)CC2)cc1F [compound 77, trans-1-((4-((S)-3-(3,5-difluorophenyl)isoxazolidine-2-carbonyl)cyclohexyl)methyl)-5-fluoro-1H-indole-6-carboxamide]",7.85,8.52
"N#Cc1cc(F)cc([C@@H]2CCON2C(=O)[C@H]2CC[C@H](Cn3ncc4ncc(C(N)=O)cc43)CC2)c1 [compound 78, trans-1-((4-((S)-3-(3-cyano-5-fluorophenyl)isoxazolidine-2-carbonyl)cyclohexyl)methyl)-1H-pyrazolo[4,3-b]pyridine-6-carboxamide]",7.40,7.14
"NC(=O)c1cnc2cnn(C[C@H]3CC[C@H](C(=O)N4OCC[C@H]4c4cc(F)cc(F)c4)CC3)c2c1 [compound 79, trans-1-((4-((S)-3-(3,5-difluorophenyl)isoxazolidine-2-carbonyl)cyclohexyl)methyl)-1H-pyrazolo[4,3-b]pyridine-6-carboxamide]",7.66,7.89

# More lines, main results first:
pIC50 [1],SMILES,pIC50 (U937 cells)
7.22,"N#Cc1cc(F)cc([C@@H]2CCON2C(=O)[C@H]2CC[C@H](Cn3cnc4c(F)cc(C(N)=O)cc43)CC2)c1 [compound 80, trans-1-((4-((S)-3-(3-cyano-5-fluorophenyl)isoxazolidine-2-carbonyl)cyclohexyl)methyl)-4-fluoro-1H-benzo[d]imidazole-6-carboxamide]",6.13
7.48,"NC(=O)c1cc(F)c2ncn(C[C@H]3CC[C@H](C(=O)N4OCC[C@H]4c4cc(F)cc(F)c4)CC3)c2c1 [compound 81, trans-1-((4-((S)-3-(3,5-difluorophenyl)isoxazolidine-2-carbonyl)cyclohexyl)methyl)-4-fluoro-1H-benzo[d]imidazole-6-carboxamide]",6.78
7.17,"Cc1ncn(C[C@H]2CC[C@H](C(=O)N3OCC[C@H]3c3cc(F)cc(C#N)c3)CC2)c1C [compound 82, trans-3-((S)-2-(4-((4,5-dimethyl-1H-imidazol-1-yl)methyl)cyclohexane-1-carbonyl)isoxazolidin-3-yl)-5-fluorobenzonitrile]",6.87
7.49,"Cc1ncn(C[C@H]2CC[C@H](C(=O)N3OCC[C@H]3c3cc(F)cc(F)c3)CC2)c1C [compound 83, trans-((S)-3-(3,5-difluorophenyl)isoxazolidin-2-yl)(4-((4,5-dimethyl-1H-imidazol-1-yl)methyl)cyclohexyl)methanone]",7.66
